Data set [1] concerns the target Tyrosine-protein kinase Lck (Homo sapiens, UniProt P06239). As to the kind of experiment: Inhibition of LCK (unknown origin) assessed as residual activity incubated for 5 mins in presence of [gamma-33ATP] by scintillation counting based radiometry assay.
The target of data set [2] is Platelet-derived growth factor receptor alpha (Homo sapiens, UniProt P16234). As to the kind of experiment: Inhibition of PDGFRalpha (unknown origin) assessed as residual activity incubated for 5 mins in presence of [gamma-33ATP] by scintillation counting based radiometry assay.
Data set [3] addresses Tyrosine-protein kinase ABL1 (Homo sapiens, UniProt P00519). Briefly: Inhibition of ABL1 (unknown origin) assessed as residual activity incubated for 5 mins in presence of [gamma-33ATP] by scintillation counting based radiometry assay.
Data set [4] has as its target Ephrin type-A receptor 4 (Homo sapiens) (UniProt P54764). As to the kind of experiment: Inhibition of EPHA4 (unknown origin) assessed as residual activity incubated for 5 mins in presence of [gamma-33ATP] by scintillation counting based radiometry assay.
Another data set deals with T1, Ephrin type-B receptor 3 (Homo sapiens, UniProt P54753).
T1 sequence (P54753 whole entry): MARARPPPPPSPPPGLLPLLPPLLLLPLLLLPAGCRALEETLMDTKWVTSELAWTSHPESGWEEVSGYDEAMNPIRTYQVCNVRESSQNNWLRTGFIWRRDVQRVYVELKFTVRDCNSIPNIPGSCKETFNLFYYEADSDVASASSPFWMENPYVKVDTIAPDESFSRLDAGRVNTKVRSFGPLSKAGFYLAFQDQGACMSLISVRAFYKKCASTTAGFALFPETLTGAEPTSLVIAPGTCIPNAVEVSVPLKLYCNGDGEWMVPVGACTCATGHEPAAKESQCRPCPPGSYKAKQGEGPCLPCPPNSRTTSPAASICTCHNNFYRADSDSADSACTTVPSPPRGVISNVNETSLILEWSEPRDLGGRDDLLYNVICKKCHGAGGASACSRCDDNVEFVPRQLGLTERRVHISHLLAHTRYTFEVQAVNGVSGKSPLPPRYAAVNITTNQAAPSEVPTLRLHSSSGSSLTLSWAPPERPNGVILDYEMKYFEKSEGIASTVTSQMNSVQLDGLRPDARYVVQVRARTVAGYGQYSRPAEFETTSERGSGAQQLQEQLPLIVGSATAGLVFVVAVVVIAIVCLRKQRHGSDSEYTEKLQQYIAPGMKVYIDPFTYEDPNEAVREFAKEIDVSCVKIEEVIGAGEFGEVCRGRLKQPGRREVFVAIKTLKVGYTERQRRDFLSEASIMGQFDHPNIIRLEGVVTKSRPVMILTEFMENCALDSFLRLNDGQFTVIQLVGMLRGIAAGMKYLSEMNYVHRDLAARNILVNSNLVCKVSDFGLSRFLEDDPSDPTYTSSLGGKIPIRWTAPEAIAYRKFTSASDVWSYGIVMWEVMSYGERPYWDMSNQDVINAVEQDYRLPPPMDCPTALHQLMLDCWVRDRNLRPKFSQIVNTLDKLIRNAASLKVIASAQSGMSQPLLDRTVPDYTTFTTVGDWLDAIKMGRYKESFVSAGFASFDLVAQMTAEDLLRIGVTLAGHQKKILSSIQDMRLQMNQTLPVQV
Briefly: Inhibition of EPHB3 (unknown origin) assessed as residual activity incubated for 5 mins in presence of [gamma-33ATP] by scintillation counting based radiometry assay.

For data set [5], the target named is T2, Discoidin domain-containing receptor 2 (Homo sapiens, UniProt Q16832).
T2 sequence (Q16832 whole entry): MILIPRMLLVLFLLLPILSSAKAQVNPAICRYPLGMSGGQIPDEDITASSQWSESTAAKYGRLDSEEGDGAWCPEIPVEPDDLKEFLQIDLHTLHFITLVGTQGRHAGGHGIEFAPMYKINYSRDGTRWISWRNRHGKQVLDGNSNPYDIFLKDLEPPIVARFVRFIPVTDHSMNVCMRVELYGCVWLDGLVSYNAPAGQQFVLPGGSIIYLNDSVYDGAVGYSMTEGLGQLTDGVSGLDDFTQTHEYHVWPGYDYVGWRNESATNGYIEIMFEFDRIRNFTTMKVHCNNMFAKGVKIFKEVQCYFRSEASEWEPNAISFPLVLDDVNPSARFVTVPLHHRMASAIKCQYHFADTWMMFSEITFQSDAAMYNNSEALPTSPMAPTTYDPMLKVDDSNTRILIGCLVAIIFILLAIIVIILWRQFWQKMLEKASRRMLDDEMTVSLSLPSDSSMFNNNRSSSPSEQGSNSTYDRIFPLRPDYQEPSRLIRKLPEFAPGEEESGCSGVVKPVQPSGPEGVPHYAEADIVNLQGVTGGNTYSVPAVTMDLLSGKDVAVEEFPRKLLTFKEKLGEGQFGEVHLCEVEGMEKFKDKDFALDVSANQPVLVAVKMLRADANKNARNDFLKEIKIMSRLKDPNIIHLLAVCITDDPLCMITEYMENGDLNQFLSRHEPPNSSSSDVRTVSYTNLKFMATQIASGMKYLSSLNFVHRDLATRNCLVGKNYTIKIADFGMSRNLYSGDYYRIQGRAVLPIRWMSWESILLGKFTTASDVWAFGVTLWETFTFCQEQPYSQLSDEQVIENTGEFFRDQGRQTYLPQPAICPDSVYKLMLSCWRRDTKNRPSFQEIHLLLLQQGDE
As to the kind of experiment: Inhibition of DDR2 (unknown origin) assessed as residual activity incubated for 5 mins in presence of [gamma-33ATP] by scintillation counting based radiometry assay.

The target in data set [6] is Serine/threonine-protein kinase Nek6 (Homo sapiens, UniProt Q9HC98). Briefly: Inhibition of NEK6 (unknown origin) assessed as residual activity incubated for 5 mins in presence of [gamma-33ATP] by scintillation counting based radiometry assay.
Data set [7] can be described thus: Cytotoxicity against HEK293 cells assessed as reduction in cell viability incubated for 72 hrs by Cell Titer Glo 2.0 reagent based assay. Conditions: human.

Molecules are shown by their SMILES.

Data on 1 compound can be found in ChEMBL document CHEMBL4602709 (ACS Med Chem Lett, 2020).

The IC50 is the concentration needed to halve the response being measured. Usually CC50 stands for the concentration at which the toxic effect on the cells reaches its halfway point.

Tyrosine-protein kinase ABL1, sequence (P00519 whole entry): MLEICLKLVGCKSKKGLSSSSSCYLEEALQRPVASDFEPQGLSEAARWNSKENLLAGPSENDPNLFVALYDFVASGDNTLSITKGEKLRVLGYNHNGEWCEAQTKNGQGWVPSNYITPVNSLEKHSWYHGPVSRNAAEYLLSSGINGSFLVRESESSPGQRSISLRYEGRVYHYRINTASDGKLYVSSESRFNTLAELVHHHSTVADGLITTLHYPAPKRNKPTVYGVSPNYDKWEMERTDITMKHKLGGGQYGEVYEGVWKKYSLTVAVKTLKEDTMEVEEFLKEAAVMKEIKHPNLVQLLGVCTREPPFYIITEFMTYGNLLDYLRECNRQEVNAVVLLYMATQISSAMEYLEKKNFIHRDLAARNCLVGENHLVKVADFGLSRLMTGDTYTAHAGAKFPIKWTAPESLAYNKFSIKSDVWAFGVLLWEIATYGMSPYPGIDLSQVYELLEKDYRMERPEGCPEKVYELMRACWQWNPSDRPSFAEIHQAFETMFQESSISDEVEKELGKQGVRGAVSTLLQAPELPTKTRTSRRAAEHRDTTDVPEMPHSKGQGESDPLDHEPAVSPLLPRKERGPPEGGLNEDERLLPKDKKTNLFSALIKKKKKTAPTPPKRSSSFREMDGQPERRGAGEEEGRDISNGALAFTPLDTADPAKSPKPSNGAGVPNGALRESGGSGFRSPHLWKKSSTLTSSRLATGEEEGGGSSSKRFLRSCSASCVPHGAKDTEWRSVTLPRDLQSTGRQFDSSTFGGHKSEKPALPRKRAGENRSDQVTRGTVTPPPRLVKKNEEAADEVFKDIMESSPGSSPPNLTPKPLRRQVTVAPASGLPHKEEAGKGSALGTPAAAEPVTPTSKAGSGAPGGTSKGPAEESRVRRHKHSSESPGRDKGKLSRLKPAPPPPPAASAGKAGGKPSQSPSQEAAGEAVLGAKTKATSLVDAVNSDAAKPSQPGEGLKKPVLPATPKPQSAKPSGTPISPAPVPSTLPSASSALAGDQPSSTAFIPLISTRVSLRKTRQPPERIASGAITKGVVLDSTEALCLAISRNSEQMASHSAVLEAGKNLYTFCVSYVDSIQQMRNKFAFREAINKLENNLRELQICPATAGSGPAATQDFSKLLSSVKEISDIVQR
Ephrin type-A receptor 4 (Homo sapiens), sequence (P54764 whole entry, looked up): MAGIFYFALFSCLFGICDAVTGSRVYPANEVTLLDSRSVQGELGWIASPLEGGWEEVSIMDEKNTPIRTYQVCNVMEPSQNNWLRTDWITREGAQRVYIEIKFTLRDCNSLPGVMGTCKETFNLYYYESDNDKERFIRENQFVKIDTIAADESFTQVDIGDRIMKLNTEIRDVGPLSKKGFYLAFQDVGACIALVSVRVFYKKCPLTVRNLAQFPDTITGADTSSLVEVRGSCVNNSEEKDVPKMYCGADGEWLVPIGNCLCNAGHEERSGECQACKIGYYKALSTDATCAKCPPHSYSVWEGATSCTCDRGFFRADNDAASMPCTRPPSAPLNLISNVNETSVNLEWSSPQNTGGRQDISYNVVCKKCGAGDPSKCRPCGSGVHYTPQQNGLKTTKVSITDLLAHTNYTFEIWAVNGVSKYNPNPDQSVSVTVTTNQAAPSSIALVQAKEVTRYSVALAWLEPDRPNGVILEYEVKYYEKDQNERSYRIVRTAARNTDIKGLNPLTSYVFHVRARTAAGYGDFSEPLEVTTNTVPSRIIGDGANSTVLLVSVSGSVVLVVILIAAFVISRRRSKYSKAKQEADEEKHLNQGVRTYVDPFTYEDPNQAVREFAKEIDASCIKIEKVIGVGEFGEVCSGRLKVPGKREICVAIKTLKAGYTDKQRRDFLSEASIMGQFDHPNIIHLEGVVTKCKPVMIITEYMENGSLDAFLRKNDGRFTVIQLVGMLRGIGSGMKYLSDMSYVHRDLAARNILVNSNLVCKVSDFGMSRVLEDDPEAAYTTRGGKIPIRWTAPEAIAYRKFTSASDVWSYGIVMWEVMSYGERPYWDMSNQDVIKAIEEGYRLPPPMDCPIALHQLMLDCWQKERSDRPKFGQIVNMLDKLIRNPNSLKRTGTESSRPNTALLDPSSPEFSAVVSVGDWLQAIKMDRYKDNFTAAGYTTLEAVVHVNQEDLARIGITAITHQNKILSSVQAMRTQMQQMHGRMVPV
Tyrosine-protein kinase Lck, sequence (P06239 whole entry): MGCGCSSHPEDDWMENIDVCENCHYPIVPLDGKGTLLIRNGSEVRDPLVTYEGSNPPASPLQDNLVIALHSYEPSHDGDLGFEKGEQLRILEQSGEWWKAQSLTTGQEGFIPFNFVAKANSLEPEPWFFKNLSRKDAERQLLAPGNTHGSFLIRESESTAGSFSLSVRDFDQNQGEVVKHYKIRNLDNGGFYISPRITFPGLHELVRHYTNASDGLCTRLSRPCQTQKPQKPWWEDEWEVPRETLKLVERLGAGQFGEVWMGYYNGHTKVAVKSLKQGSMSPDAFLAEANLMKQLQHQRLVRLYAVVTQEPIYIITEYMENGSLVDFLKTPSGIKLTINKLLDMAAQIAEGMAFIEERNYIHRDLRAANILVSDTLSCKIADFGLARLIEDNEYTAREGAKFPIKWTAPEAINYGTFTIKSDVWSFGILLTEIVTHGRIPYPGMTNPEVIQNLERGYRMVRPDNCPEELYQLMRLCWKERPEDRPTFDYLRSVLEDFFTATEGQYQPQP
Platelet-derived growth factor receptor alpha, sequence (P16234 whole entry): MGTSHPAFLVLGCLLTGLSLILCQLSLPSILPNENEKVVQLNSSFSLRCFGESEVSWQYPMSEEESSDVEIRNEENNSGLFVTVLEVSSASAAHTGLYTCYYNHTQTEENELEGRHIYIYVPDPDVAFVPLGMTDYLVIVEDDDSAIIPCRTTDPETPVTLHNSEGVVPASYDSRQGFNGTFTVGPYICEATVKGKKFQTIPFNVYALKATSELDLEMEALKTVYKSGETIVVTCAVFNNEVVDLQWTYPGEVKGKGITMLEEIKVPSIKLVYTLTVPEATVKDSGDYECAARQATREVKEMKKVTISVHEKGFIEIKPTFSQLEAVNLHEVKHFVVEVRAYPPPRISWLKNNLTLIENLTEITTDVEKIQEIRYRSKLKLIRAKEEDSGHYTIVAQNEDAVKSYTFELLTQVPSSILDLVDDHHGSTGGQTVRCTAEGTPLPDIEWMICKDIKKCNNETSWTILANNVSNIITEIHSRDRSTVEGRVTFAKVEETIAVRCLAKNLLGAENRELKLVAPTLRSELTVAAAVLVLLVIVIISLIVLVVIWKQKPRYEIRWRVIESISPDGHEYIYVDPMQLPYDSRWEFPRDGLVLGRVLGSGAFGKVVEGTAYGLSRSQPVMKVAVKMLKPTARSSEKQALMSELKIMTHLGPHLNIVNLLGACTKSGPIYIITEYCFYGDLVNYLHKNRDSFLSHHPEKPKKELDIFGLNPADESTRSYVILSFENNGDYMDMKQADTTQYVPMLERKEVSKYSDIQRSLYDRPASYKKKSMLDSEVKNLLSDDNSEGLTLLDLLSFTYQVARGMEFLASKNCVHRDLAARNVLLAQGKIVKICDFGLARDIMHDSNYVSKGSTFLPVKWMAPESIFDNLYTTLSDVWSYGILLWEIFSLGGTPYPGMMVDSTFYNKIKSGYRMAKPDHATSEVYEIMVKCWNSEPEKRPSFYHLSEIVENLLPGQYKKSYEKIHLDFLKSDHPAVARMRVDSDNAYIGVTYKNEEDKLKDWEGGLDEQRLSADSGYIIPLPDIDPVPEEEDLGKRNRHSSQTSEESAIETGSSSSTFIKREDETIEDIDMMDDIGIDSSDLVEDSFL
Serine/threonine-protein kinase Nek6, sequence (Q9HC98 whole entry): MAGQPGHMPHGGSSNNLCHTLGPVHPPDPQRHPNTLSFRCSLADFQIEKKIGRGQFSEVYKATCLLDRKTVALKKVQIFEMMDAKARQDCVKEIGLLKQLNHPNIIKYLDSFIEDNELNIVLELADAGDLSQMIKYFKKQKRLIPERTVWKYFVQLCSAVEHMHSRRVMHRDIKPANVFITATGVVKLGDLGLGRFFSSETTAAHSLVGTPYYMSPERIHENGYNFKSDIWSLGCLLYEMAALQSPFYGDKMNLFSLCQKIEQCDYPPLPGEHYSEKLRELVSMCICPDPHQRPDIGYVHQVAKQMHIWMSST

Consider `Cc1ccc(C(=O)Nc2ccc(CN3Cc4cn[nH]c4C3)c(Cl)c2)cc1C#Cc1cnc2cccnn12`, for which the concentration for half-maximal inhibition (IC50) came out at 26.1 nM in data set [1]; 2 nM in data set [2]; 1.3 nM in data set [3]; 84.6 nM in data set [4]; 19.5 nM on Ephrin type-B receptor 3; 286 nM in data set [5]. For the same compound, the concentration for half-maximal inhibition (IC50) in data set [6] was determined as 5350 nM. For the same compound, the cytotoxic concentration (CC50) at 72 h in data set [7] is over 50000 nM.
